Results published in patent US11278549B2, “Method of treating obesity” (McMaster University, priority 2013, dated 2022).
Counter-ions that a name gives are not always drawn.

What was measured:
5-HT2A = target: T1, 5-HT2A (Mus musculus, UniProt P35363); assay: Fluo-4 Ca2+ signals in brown adipocytes; type: cell-based; conditions: for Ca2+ levels: brown adipocytes stained with Fluo-4, agonist treatment; for 5-HT induced Ca2+ transients: pre-treatment with antagonist
T1 construct: endogenous in cells; host or cells: immortalized murine brown adipocytes (differentiated)
T1 sequence (P35363 whole entry): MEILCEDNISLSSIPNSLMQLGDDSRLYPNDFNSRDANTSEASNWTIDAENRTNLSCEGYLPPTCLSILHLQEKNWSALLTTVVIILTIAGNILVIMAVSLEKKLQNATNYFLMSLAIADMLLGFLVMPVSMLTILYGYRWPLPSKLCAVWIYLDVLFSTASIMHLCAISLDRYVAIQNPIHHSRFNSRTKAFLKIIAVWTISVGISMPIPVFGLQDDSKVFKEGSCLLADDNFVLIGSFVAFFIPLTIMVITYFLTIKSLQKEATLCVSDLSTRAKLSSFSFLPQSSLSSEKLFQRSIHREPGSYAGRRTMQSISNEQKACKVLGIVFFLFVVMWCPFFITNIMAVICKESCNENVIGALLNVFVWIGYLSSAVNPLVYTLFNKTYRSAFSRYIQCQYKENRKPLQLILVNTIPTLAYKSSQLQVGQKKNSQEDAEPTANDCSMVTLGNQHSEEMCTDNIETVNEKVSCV
Description: Immortalized BA progenitor cells obtained from 5-HT2A KO (B6; 129-5-HT2Atm1a/Nju from Nanjing Biomedical Research Institute of Nanjing University) mice were differentiated for 9 days to produce mature BAs. Cells were then stained with fluo-4 and treated with different concentrations of 5-HT to obtain a dose response curve. Values from BAs expressing 5-HT2A used for other experiments were plotted as a WT comparison.

UCP1 = assay: Ucp1 promoter activity, Ucp1 mRNA and UCP1 protein in brown adipocytes; type: cell-based, mouse
Description: Using RNA-Seq, cultured human brown and beige adipocytes were interrogated for 5-HT receptor mRNA expression. Immortalized murine brown adipocytes (BAs) were treated with or without the selective 5-HT reuptake inhibitor (SSRI), paroxetine (250 nM). Subsequent studies were conducted with and without 5-HT2A agonists (1 pM-10 uM TCB-2, 1 pM-10 uM AL-34662, and 1 pM-10 uM NBOH-2C-CN) and 5-HT2A antagonists (100 fM-100 pM MDL-100907, 100 pM-10 uM xylamidine tosylate, 1 nM ketanserin, 10 nM altanserin, 100 fM-100 pM EMD-281,014, and 100 pM-10 uM sarpogrelate hydrochloride).
BA progenitors were isolated and immortalized from WT and serotonin transporter (SERT; Gene: Slc6a4) KO mice. These cells were then differentiated for 7 days to obtain mature BAs. BAs were then treated with different doses of 5-HT for 4 hours. RNA was isolated and quantified using RT-qPCR with probes specific for Slc6a4, Ucp1 and PPIA.
BA progenitors were isolated from mice expressing a transgene where the luciferase gene is driven by the Ucp1 promoter (i.e. Ucp1-Luc2 mice; a.k.a. ThermoMouse; Jackson Laboratories). Upon 9 days of differentiation, these BAs were treated for 4 hours with different doses of 5-HT. Because in vitro there is not a continuous supply of 5-HT as there is in vivo, cells were treated with paroxetine to inhibit the uptake and consequent degradation of 5-HT, and to observe 5-HT receptor specific effects. These cells were then lysed, incubated with a luciferin assay cocktail, and the light generated quantified on a microplate reader.

5-HT receptor = assay: Isoproterenol-induced lipolysis (FFA release) in immortalized BAT cells; type: cell-based, mouse; conditions: co-treatment with the antagonist (3 μM), n=2
Description: Briefly, confluent cells were placed in induction media (0.5 mM IBMX; 0.25 mM indomethacin; 2 μg/ml dexamethasone; 1 nM T3, 20 nM insulin) for two days and subsequently maintained on differentiation media (1 nM T3, 20 nM insulin). All experiments were performed on cultures 6-8 days post-induction. Unless otherwise indicated, cells were rinsed with PBS and media was changed to HEPES-buffered Krebs Ringer buffer (HKRB)+1% BSA. Where indicated, BAs were treated with serotonin for 30 min (100 μM; Sigma) followed by isoproterenol (1 nM, Sigma) for 4 h. The serotonin receptor antagonist, methysergide (3 μM) was used 45 min prior treatment with serotonin as above.

HFD-fed C57Bl6 mice [1] = assay: Metabolic cages and 18FDG-PET/CT of LP533401-treated HFD-fed mice; type: in vivo
Description: (§1) Metabolic monitoring was performed in a Comprehensive Lab Animal Monitoring System (CLAMS, Columbus Instruments, OH, USA) as previously described (Sachithanandan, N., et al. Hepatology 52, 1632-1642 (2010); O'Neill, H. M., et al. Proc Natl Acad Sci 108, 16092-16097 (2011)). CL-316,243 challenge experiments were also performed using the CLAMS equipment, as described. All metabolic monitoring occurred in a room kept between 26 and 28° C. Insulin and glucose tolerance tests were performed after 16 weeks of the diet intervention in Tph1^−/− mice experiments, and after 6-10 weeks of HFD weeks in LP533401 injection experiments as previously described (Steinberg, G. R., et al. J Biol Chem 285, 37198-37209 (2010)). For serum insulin and cytokine measurements, fasting and fed blood samples were collected by retro-orbital bleed between weeks 16-18 using a non-heparinized capillary tube and insulin, adiponectin, leptin were measured as described (Watt, M. J., et al. Nature medicine 12, 541-548 (2006)). Serum cytokines (MCP-1, TNFα, and IL-6) were measured using a multiplexed bead-based immunoassay (BD Biosciences, San Jose, Calif., USA) following the manufacturer's instructions.
(§2) In vivo glucose uptake and body composition: ^18F-Fluorodeoxyglucose (FDG) was synthesized at McMaster University by the nucleophilic substitution method using an FDG synthesizing instrument (GE Healthcare, Milwaukee, Wis., USA) and a cyclotron (Siemans 20-30 gb). After an 8 h fast, mice were injected with insulin (0.5 U/kg) diluted in 0.9% physiological saline and 5 minutes later received an intravenous administration of FDG (10.8±1.2 MBq/g). After injection, the mice were maintained under conscious conditions and warmed using a heating pad. At 28 minutes post saline or insulin injection mice were anaesthetized with isoflorane and at 30 minutes small-animal positron emission tomography (PET, Philip Mosaic, Andover, Mass.) and micro-computed tomography (CT) (Gamma Medica-Ideas Xspect System, NorthRidge, Calif.) imaging were performed using an acquisition time of 15 min for PET, followed by CT for 5 minutes. Images were reconstructed using 3D-RAMLA algorithm, with no attenuation correction and no correction for partial-volume effects of the tomograph as previously described^31. Quantification was performed by Region-of-interest (ROI) analysis using Amide Research Workplace software and FDG-tissue uptake calculated using the mean value of standard uptake values (SUV) as described (Palanivel R, Diabetologia. 55(11):3083-93 (2012)). Analysis of total body fat composition were determined by using Amira software (Visage Imaging) and the mean value of voxels of segmented adipose were calculated and expressed relative to total body mass.
To examine the mechanisms contributing to weight loss in LP533401-treated mice, HFD-fed mice were placed in metabolic cages after 12 days of treatment before any change in body mass was evident in groups (Vehicle: 29.4±0.58 g vs. LP533401:28.9±0.63 g).

HFD-fed C57Bl6 mice [2] = assay: Daily LP533401 treatment of HFD-fed C57Bl6 mice (prevention of obesity); type: in vivo
Description: Animals. All experiments were approved by the McMaster University animal ethics committee and conducted under the Canadian guidelines for animal research. Tph1^−/− mice on C57BL/6 background were originally produced by gene mutation as described by Côté et al. (Proc Natl Acad Sci USA 100, 13525-13530 (2003)). Heterozygous (Tph1^+/−) mice were interbred to generate Tph1^−/− and Tph1^+/+ littermates. Starting at 8 weeks of age, male Tph1^−/− and Tph1^+/+ mice received either a chow (17% kcal fat; Diet 8640, Harlan Teklad, Madison, Wis.) or high-fat diet (HFD, 45% kcal fat, D12451, Research Diets; New Brunswick, N.J.) and water ad libitum for 12 weeks. For the initial chemical inhibitor studies, male C57BL/6 mice were purchased from Jackson's Laboratory at 6 weeks of age and immediately placed on the HFD described above. Starting at 8 weeks of age HFD-fed C57Bl6 mice received a daily intraperitoneal injection of the Tph1 inhibitor, LP533401 (25 mg/kg body weight, Dalton Pharma Services, Canada) dissolved in DMSO and diluted with water (5% DMSO final concentration) or equal volume of vehicle (5% DMSO in water). […] All mice were housed in SPF micro-isolator cages that were located in a room maintained at a constant temperature of 23° C. on a 12 h light/dark cycle with lights on at 0700.
as §1
as §2, with “Analysis of total body fat composition were determined by using Amira software (Visage Imaging) and the mean value of voxels of segmented adipose were calculated and expressed relative to total body mass.” left out

[3] = system: HFD-fed Ucp1+/+ and Ucp1-/- mice; assay: LP533401 in HFD-fed Ucp1+/+ and Ucp1-/- mice at thermoneutrality; type: in vivo
Description: Ucp1 heterozygous mice were acquired from Jackson Laboratories and bred to produce UCP1-null (Ucp1^−/−) and wild-type (Ucp1^+/+) littermates. In order to prevent thermal stress, mice in this colony were bred and housed in a room maintained at 30° C. All testing except for the CL-316,243 challenge occurred at this temperature.
as §1
In order to establish whether the clinical benefits of Tph1 inhibition (weight loss and improvements in insulin sensitivity) are derived from increased thermogenesis mediated by UCP1, daily injections of LP533401 were performed using UCP1-null (Ucp1^−/−) and wild-type littermates (Ucp1^+/+) fed a HFD and housed under thermoneutral conditions (30° C.). […] Thus, the clinical benefits of Tph1 inhibition require UCP1 mediated thermogenesis.

[4] = HFD-fed C57Bl6 mice, Tph1 inhibitor 25 mg/kg daily i.p., values ± SEM, n = 7-8

Structure (SMILES): COc1cc(Br)c(OC)c2c1[C@H](CN)C2 [TCB-2]
- Ca2+ levels (5-HT2A): increased

Structure (SMILES): COc1cc(CCNCc2ccccc2O)c(OC)cc1C#N [NBOH-2C-CN]
- Ucp1 mRNA (UCP1; brown adipocytes): inhibited
- UCP1 protein levels (UCP1; brown adipocytes, chronic treatment for NBOH-2C-CN): decreased
- Ca2+ levels (5-HT2A): increased

Structure (SMILES): N#Cc1c[nH]c2c(C(=O)N3CCN(CCc4ccc(F)cc4)CC3)cccc12 [EMD-281,014, pruvanserin]
- 5-HT induced Ca2+ transients (5-HT2A): attenuated

Structure (SMILES): COc1cccc(CCc2ccccc2OCC(CN(C)C)OC(=O)CCC(=O)O)c1 (centres unmarked) [Sarpogrelate hydrochloride]
- 5-HT induced Ca2+ transients (5-HT2A): attenuated

Structure (SMILES): C[C@H](N)Cn1ncc2ccc(O)cc21 [AL-34662]
- Ca2+ levels (5-HT2A): increased

Structure (SMILES): Fc1ccc([C@@H]2CCNC[C@H]2COc2ccc3c(c2)OCO3)cc1 [paroxetine]
- sensitivity of brown adipocytes to inhibition by 5-HT (UCP1; serotonin transporter inhibited with the SSRI): greater sensitivity

Structure (SMILES): CC[C@@H](CO)NC(=O)[C@@H]1C=C2c3cccc4c3c(cn4C)C[C@H]2N(C)C1 [methysergide]
- effect of serotonin on isoproterenol-induced lipolysis (5-HT receptor): blocked

Structure (SMILES): COc1cccc([C@H](O)C2CCN(CCc3ccc(F)cc3)CC2)c1OC [MDL-100907, volinanserin]
- 5-HT induced decrease in UCP1 protein levels (UCP1; antagonist plus 5-HT): dose-dependently attenuated
- 5-HT induced Ca2+ transients (5-HT2A): attenuated

Structure (SMILES): Nc1nc(OC(c2ccc(-c3cccc(F)c3)cc2)C(F)(F)F)cc(-c2ccc(C[C@H](N)C(=O)O)cc2)n1 (stereo partly drawn) [LP533401, (2S)-2-amino-3-(4-(2-amino-6-(2,2,2-trifluoro-1-(3′-fluoro-[1,1′-biphenyl]-4-yl)ethoxy)pyrimidin-4-yl)phenyl)propanoic acid]
- FDG uptake in BAT (HFD-fed C57Bl6 mice [1]; 18FDG-PET/CT): increased
- FDG uptake into eWAT (HFD-fed C57Bl6 mice [1]; PET, HFD-fed C57Bl6 mice): increased
- body mass (HFD-fed C57Bl6 mice [1]; after 12 days of treatment, before any change in body mass): 28.9 ± 0.63 g
- oxygen consumption (HFD-fed C57Bl6 mice [1]; dark and light cycles, after 12 days of treatment): increased
- browning of eWAT (HFD-fed C57Bl6 mice [1]; macroscopically evident, with marked UCP1 immunostaining): Increased
- food intake (HFD-fed C57Bl6 mice [1]; metabolic cages, P>0.05 vs vehicle, n=8): 13.7 ± 0.45 g
- activity levels (HFD-fed C57Bl6 mice [1]; metabolic cages, after 12 days of treatment): without altering
- expression of UCP1 in BAT (HFD-fed C57Bl6 mice [1]; mouse, in vivo): enhanced
- accumulation of body fat (HFD-fed C57Bl6 mice [2]; 25 mg/kg i.p., versus vehicle): lower accumulation
- circulating serotonin levels (HFD-fed C57Bl6 mice [2]; 25 mg/kg i.p., versus vehicle): reduced
- glucose homeostasis (HFD-fed C57Bl6 mice [2]; 25 mg/kg i.p., versus vehicle): improvements
- insulin sensitivity (HFD-fed C57Bl6 mice [2]; 25 mg/kg i.p., versus vehicle): increased
- liver size (HFD-fed C57Bl6 mice [2]; 25 mg/kg i.p., versus vehicle): reductions
- weight gain (HFD-fed C57Bl6 mice [2]; 25 mg/kg i.p., versus vehicle (1-2 grams per week)): suppressed
- Tissue weight, Brown Adipose Tissue (HFD-fed C57Bl6 mice [2]; [4]): 153 ± 8.4 mg
- Tissue weight, Epididymal Fat Pad (HFD-fed C57Bl6 mice [2]; [4]): 1157 ± 121 mg
- Tissue weight, Inguinal Fat Pad (HFD-fed C57Bl6 mice [2]; [4]): 117 ± 16 mg
- Tissue weight, Retroperitoneal Fat Pad (HFD-fed C57Bl6 mice [2]; [4]): 265 ± 29.9 mg
- weight gain ([3]; Ucp1+/+ mice, HFD, 30° C.): attenuated weight gain
- improvements in glucose tolerance ([3]; Ucp1+/+ versus Ucp1-/- mice): entirely dependent on the expression of UCP1
- oxygen uptake and thermogenesis ([3]; challenged with CL-316,243, only Ucp1+/+ mice): increase
